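Protocol summary: plate cells (96-well), add compound at 5 concentrations, incubate 48 h, interpolate endpoints linearly. TGI: concentration producing complete growth inhibition.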
Key:
Test in all cases: DTP human tumour cell line panel, 48 h
HL-60(TB) leukemia = tested on: HL-60(TB) leukemia
SR leukemia = tested on: SR leukemia
A498 renal = tested on: A498 renal
ACHN renal = tested on: ACHN renal
T-47D breast = tested on: T-47D breast
PC-3 prostate = tested on: PC-3 prostate
NCI/ADR-RES ovarian = tested on: NCI/ADR-RES ovarian
SW-620 colon = tested on: SW-620 colon
MDA-MB-231 breast = tested on: MDA-MB-231 breast
UACC-257 melanoma = tested on: UACC-257 melanoma
SF-268 CNS = tested on: SF-268 CNS
HCT-116 colon = tested on: HCT-116 colon
OVCAR-8 ovarian = tested on: OVCAR-8 ovarian
EKVX NSCLC = tested on: EKVX NSCLC
COLO 205 colon = tested on: COLO 205 colon
UO-31 renal = tested on: UO-31 renal
BT-549 breast = tested on: BT-549 breast
SNB-75 CNS = tested on: SNB-75 CNS
OVCAR-3 ovarian = tested on: OVCAR-3 ovarian
HOP-92 NSCLC = tested on: HOP-92 NSCLC

What does the source list for CCN1C[C@]2(C)CC[C@H](OC)C34C5C[C@@H]6[C@@H](OC)C[C@@](OC)(C5[C@H]6OCc5ccccc5)C(C13)[C@H](OC(C)=O)[C@@H]42 (stereo not given in full)?
TGI (HL-60(TB) leukemia): > 100 µM; TGI (SR leukemia): > 100 µM; TGI (A498 renal): > 100 µM; TGI (ACHN renal): > 100 µM; TGI (T-47D breast): > 100 µM; TGI (PC-3 prostate): > 100 µM; TGI (NCI/ADR-RES ovarian): > 100 µM; TGI (SW-620 colon): > 100 µM; TGI (MDA-MB-231 breast): > 100 µM; TGI (UACC-257 melanoma): > 100 µM; TGI (SF-268 CNS): > 100 µM; TGI (HCT-116 colon): > 100 µM; TGI (OVCAR-8 ovarian): > 100 µM; TGI (EKVX NSCLC): > 100 µM; TGI (COLO 205 colon): > 100 µM; TGI (UO-31 renal): > 100 µM; TGI (BT-549 breast): > 100 µM; TGI (SNB-75 CNS): 36 µM; TGI (OVCAR-3 ovarian): > 100 µM; TGI (HOP-92 NSCLC): > 100 µM

How did the TGI (HL-60(TB) leukemia) turn out when CCCCN(C)C(=O)C1=C(C)NC(C)=C(C(=O)N(C)CCCC)C1 was run?
Its TGI is > 100 µM.

And the TGI (SR leukemia)?
The TGI was > 100 µM.

And the TGI (A498 renal)?
The TGI was > 100 µM.

What about the TGI (ACHN renal) of the same molecule?
The TGI was > 100 µM.

What about the TGI (T-47D breast) of the same molecule?
Its TGI is > 100 µM.

And the TGI (PC-3 prostate)?
The TGI was > 100 µM.

And the TGI (NCI/ADR-RES ovarian)?
Its TGI is > 100 µM.

And the TGI (SW-620 colon)?
The TGI was > 100 µM.

And the TGI (MDA-MB-231 breast)?
The TGI was > 100 µM.

What about the TGI (UACC-257 melanoma) of the same molecule?
The TGI was > 100 µM.

And the TGI (SF-268 CNS)?
The TGI was > 100 µM.

What about the TGI (HCT-116 colon) of the same molecule?
The TGI was > 100 µM.

And the TGI (OVCAR-8 ovarian)?
Its TGI is > 100 µM.

What about the TGI (EKVX NSCLC) of the same molecule?
The TGI was > 100 µM.

What about the TGI (COLO 205 colon) of the same molecule?
Its TGI is > 100 µM.

And the TGI (UO-31 renal)?
Its TGI is > 100 µM.

What about the TGI (BT-549 breast) of the same molecule?
The TGI was > 100 µM.

What about the TGI (SNB-75 CNS) of the same molecule?
The TGI was > 100 µM.

And the TGI (OVCAR-3 ovarian)?
Its TGI is > 100 µM.

And the TGI (HOP-92 NSCLC)?
The TGI was > 100 µM.

With O=C(NCCCCCCCN1CCCCCCC1)C(C1CCCCC1)C1CCCCC1 as the molecule, how does the TGI (HL-60(TB) leukemia) read?
The TGI was 22.2 µM.

What about the TGI (SR leukemia) of the same molecule?
Its TGI is 6.84 µM.

And the TGI (A498 renal)?
Its TGI is 15.5 µM.

What about the TGI (ACHN renal) of the same molecule?
Its TGI is 24.4 µM.

And the TGI (T-47D breast)?
The TGI was 23 µM.

And the TGI (PC-3 prostate)?
The TGI was 21.1 µM.

What about the TGI (NCI/ADR-RES ovarian) of the same molecule?
The TGI was 25.1 µM.

What about the TGI (SW-620 colon) of the same molecule?
The TGI was 56.1 µM.

What about the TGI (MDA-MB-231 breast) of the same molecule?
Its TGI is 20.8 µM.

And the TGI (UACC-257 melanoma)?
The TGI was 4.79 µM.

What about the TGI (SF-268 CNS) of the same molecule?
Its TGI is 32.5 µM.

What about the TGI (HCT-116 colon) of the same molecule?
Its TGI is 21.5 µM.

What about the TGI (OVCAR-8 ovarian) of the same molecule?
The TGI was 26 µM.

And the TGI (EKVX NSCLC)?
The TGI was 18.9 µM.

And the TGI (COLO 205 colon)?
The TGI was 8.64 µM.

And the TGI (UO-31 renal)?
The TGI was 21.3 µM.

What about the TGI (BT-549 breast) of the same molecule?
Its TGI is 28.7 µM.

And the TGI (SNB-75 CNS)?
Its TGI is 23.1 µM.

And the TGI (OVCAR-3 ovarian)?
The TGI was 18.6 µM.

What about the TGI (HOP-92 NSCLC) of the same molecule?
Its TGI is 23.7 µM.

How did the TGI (HL-60(TB) leukemia) turn out when C=C1C2CCC3(CCC4C5(C)CCCC4(C=[N+](CCO)C5)C3C2)C1O (stereo not given) was run?
The TGI was > 100 µM.

And the TGI (SR leukemia)?
Its TGI is > 100 µM.

What about the TGI (A498 renal) of the same molecule?
The TGI was > 100 µM.

And the TGI (ACHN renal)?
Its TGI is > 100 µM.

And the TGI (T-47D breast)?
Its TGI is > 100 µM.

What about the TGI (PC-3 prostate) of the same molecule?
The TGI was > 100 µM.

And the TGI (NCI/ADR-RES ovarian)?
The TGI was > 100 µM.

What about the TGI (SW-620 colon) of the same molecule?
The TGI was > 100 µM.

What about the TGI (MDA-MB-231 breast) of the same molecule?
Its TGI is > 100 µM.

What about the TGI (UACC-257 melanoma) of the same molecule?
Its TGI is > 100 µM.

What about the TGI (SF-268 CNS) of the same molecule?
Its TGI is > 100 µM.

What about the TGI (HCT-116 colon) of the same molecule?
The TGI was > 100 µM.

What about the TGI (OVCAR-8 ovarian) of the same molecule?
Its TGI is > 100 µM.

And the TGI (EKVX NSCLC)?
Its TGI is > 100 µM.

What about the TGI (COLO 205 colon) of the same molecule?
The TGI was > 100 µM.

What about the TGI (UO-31 renal) of the same molecule?
The TGI was > 100 µM.

What about the TGI (BT-549 breast) of the same molecule?
Its TGI is > 100 µM.

What about the TGI (SNB-75 CNS) of the same molecule?
The TGI was > 100 µM.

What about the TGI (OVCAR-3 ovarian) of the same molecule?
The TGI was > 100 µM.

And the TGI (HOP-92 NSCLC)?
The TGI was > 100 µM.

What does the source list for CC(=O)O[C@@H]1[C@H]2[C@@H](OC(=O)c3ccccc3)[C@@H](C)C[C@]2(O)[C@H](OC(C)=O)[C@@]2(C)[C@@H]3C[C@@](C)(OC(C)=O)C[C@@H](OC(C)=O)[C@@]3(OC(C)=O)C[C@@]12C?
TGI (HL-60(TB) leukemia): > 10 µM; TGI (SR leukemia): > 10 µM; TGI (A498 renal): > 10 µM; TGI (ACHN renal): > 10 µM; TGI (T-47D breast): > 10 µM; TGI (PC-3 prostate): > 10 µM; TGI (NCI/ADR-RES ovarian): > 10 µM; TGI (SW-620 colon): > 10 µM; TGI (MDA-MB-231 breast): > 10 µM; TGI (UACC-257 melanoma): > 10 µM; TGI (SF-268 CNS): > 10 µM; TGI (HCT-116 colon): > 10 µM; TGI (OVCAR-8 ovarian): > 10 µM; TGI (EKVX NSCLC): > 10 µM; TGI (COLO 205 colon): > 10 µM; TGI (UO-31 renal): > 10 µM; TGI (BT-549 breast): > 10 µM; TGI (SNB-75 CNS): > 10 µM; TGI (OVCAR-3 ovarian): > 10 µM; TGI (HOP-92 NSCLC): > 10 µM
